# Assay results reported in patent US20160361445A1, “COMPOUND OR SALT THEREOF AND PHOTOACOUSTIC IMAGING CONTRAST AGENT CONTAINING COMPOUND OR SALT THEREOF” (CANON KABUSHIKI KAISHA, priority 2015, published 2016).
# Assay: Photoacoustic characteristic evaluation (photoacoustic signal measurement)
# Conditions: pulse laser 790 nm, 12 mJ/cm^2; contrast agent in distilled water
# Experimental: Regarding the measurement of a photoacoustic signal, a sample was irradiated with pulse laser light, a photoacoustic signal from the sample was detected by using a piezoelectric element and was measured by a digital oscilloscope after being amplified by a high-speed preamplifier. Specific conditions were as described below. A titanium sapphire laser (produced by Lotis) was used as a light source. Regarding the conditions, the wavelength was 790 nm, the energy density was 12 mJ/cm^2, the pulse width was 20 nanoseconds, and the pulse repetition was 10 Hz. Model V303 (produced by Panametrics-NDT) was used as an ultrasonic transducer. Regarding the conditions, the center band was 1 MHz, the element size was φ0.5, the measurement distance was 25 mm (non-focus), and the amplification was +30 dB (ultrasonic preamplifier Model 5682 produced by Olympus Corporation). A measurement container was a polystyrene cuvette, the optical path length was 0.1 cm, and the sampling capacitor was about 200 μL. The measurement was performed by using DPO4104 (produced by Tektronix Corporation), where the conditions were as described below, trigger: photoacoustic light was detected by a photodiode data acquisition: average of 128 times (128 pulses)
compound,measurement,value
"CC1(C)C(/C=C/C=C/C=C/C=C2\N(CCCCS(=O)(=O)O)c3ccc4ccccc4c3C2(C)C)=[N+](CCCCS(=O)(=O)[O-])c2ccc3ccccc3c21 [Contrast agent (C-1), Indocyanine green]",Photoacoustic signal intensity ratio,1.0
